Reference: patent US20160166705A1, “THERAPEUTICAL USE OF TERNARY COMPLEXES OF VALPROIC ACID” (UNIVERSITE PARIS-SUD XI, priority 2009, published 2016)

Experiments:
leukocyte migration = test: Anti-inflammatory tail section assay, leukocyte migration in zebrafish; format: in vivo
Method: (§1) All chemicals were firstly dissolved in dimethylsulfoxide, DMSO 99.5% (GC) Sigma-Aldrich), and then diluted in embryo medium E3 (5 mM NaCl, 0.17 mM KCl, 0.33 mM CaCl2, 0.33 mM Mg2SO4, 10-5% methylene blue).
(§2) During the course of the experiments, transgenic zebrafish of the fli-1: EGFP lines were used. Once the fertilized eggs were collected, they were reared in embryo medium E3 in an incubator at 28° C. The 20 hours post fertilization (hpf), 1-phenyl-2-thiourea (PTU) (Sigma-10×(0.03%)) was added to larvae's medium in 1:9 proportion to prevent the formation of melanophores in zebrafish embryos and larvae [Karlsson, J., von Hofsten, J. and Olsson, P. Mar. Biotechnol., 2001, 3, 522-527].
The experimental corroboration of anti-inflammatory activity was done by using a new in vivo test development using zebrafish biological material [Siverio-Mota, D., de Witte, P. et al, 2009, in preparation]. The principal aspects of this new biological assay are the following. First, ten larvae from 4 dpf were used per treated and control groups. In each case, the MTC was used as the assay concentration and indomethacin (Merck Sharp & Dohme) at 30 μM was used as control group. These larvae were placed in wells of a 24 wells tissue culture plate at assay's concentrations in ImL final volume. After one hour, the larvae were anesthetized by immersion in E3 containing tricaine (Westerfield, M., The Zebrafish Book: A Guide for the Laboratory Use of Zebrafish (Brachydanio rerio). 1995, Eugene, Oreg., University of Oregon Press), the complete section of the tail was performed with a sterile scalpel. Once tails were cut, zebrafish were placed again in a 24 wells tissue culture plate at assay's concentrations together with 10 μg/mL solution of lipopolysaccharide to stimulate the leukocyte migration. The temperature of incubation was kept from 20 to 22° C. […]
Anti-inflammatory activity was evaluated following the steps described above. Leukocyte migration to damaged zone (end tail) was observed and evaluated as the parameter determining the anti-inflammatory activity of the tested compounds. […]

[1] = test system: Maximal Electroshock (MES) induced seizures; test: Maximal Electroshock Seizure (MES) test; format: in vivo; conditions: mice ip 57, 188, or 570 µmg/kg; challenge 0.5 and 4 h after treatment
Method: Anticonvulsant activities were determined by the National Institutes of Health-National Institute of Neurological Disorders and Stroke-Antiepileptic Drug Development program for the detection and evaluation of compounds as anticonvulsants agents. Compounds were suspended in polyethylene glycol prior to injection into male Carworth Farms #1 mice. In Phase I studies, identification of anti-convulsant activity, test compounds were given intraperitonealy ([…]) of body mass, and protection against Maximal Electroshock (MES), Minimal Electroshock (MCS) and/or Metrazol (scMET) induced seizures was determined 30 min and 4 h later. All statistics were obtained by Probit analysis.
Maximal electroshock seizure (MES) were elicited with a 60 cycles alternating current of 50 mA, five to seven times that necessary to elicit minimal electroshock seizures, delivered for 0.2 s via corneal electrodes. A drop of 0.9% saline solution was instilled into both eyes prior to application of electrodes in order to prevent death. Abolition of the hind limb tonic extension component of seizure is defined as anticonvulsant activity.

Minimal Clonic Seizure = test: Minimal Electroshock / Psychomotor (Minimal Clonic) Seizure test (MCS); format: in vivo, mice; conditions: for anticonvulsant activity against MCS, complex versus individual constituents: mouse, in vivo
Method: Anticonvulsant activities were determined by the National Institutes of Health-National Institute of Neurological Disorders and Stroke-Antiepileptic Drug Development program for the detection and evaluation of compounds as anticonvulsants agents. Compounds were suspended in polyethylene glycol prior to injection into male Carworth Farms #1 mice. In Phase I studies, identification of anti-convulsant activity, test compounds were given intraperitonealy (ip) at 57, 188 and 570 milligrams-per-kilogram (mg/kg) of body mass, and protection against Maximal Electroshock (MES), Minimal Electroshock (MCS) and/or Metrazol (scMET) induced seizures was determined 30 min and 4 h later. All statistics were obtained by Probit analysis.
This test was designed to detect compounds that are missed with the MES tests which employ a larger current of 50 mA. The delivery of a less intense electric stimulation which produces less intense stimulation of the CNS (Central Nervous System) and brain inflammation than the MES test, via corneal electrodes of 6 Hz, 32 mA or slightly higher current, for 3 s, is used to produce psychomotor seizures, following instillation of a drop of 0.9% saline solution prior to this application of electric current. Abolition of the visual stereotypic behavior characterized as minimal automatist behaviors, similar to the aura that human patients experience during psychomotor seizure, is defined as antipsychomotor seizure activity.

[2] = test system: Metrazol (scMET) induced seizures; test: Subcutaneous Metrazol seizure threshold test (scMET), mice; format: in vivo
Method: Anticonvulsant activities were determined by the National Institutes of Health-National Institute of Neurological Disorders and Stroke-Antiepileptic Drug Development program for the detection and evaluation of compounds as anticonvulsants agents. Compounds were suspended in polyethylene glycol prior to injection into male Carworth Farms #1 mice. […] All statistics were obtained by Probit analysis.
A dose of Pentylenetetrazol, a potent CNS stimulant, which produces seizures in greater than 97% of treated mice, at 85 mg/kg of body mass, was administered s.c. as a 0.5% saline solution at the posterior neck midline. […] Failure to observe even a threshold seizure, a single episode of clonic spasms of at least five second duration, is defined as anticonvulsant activity.

MET-induced seizures = test: Metrazol seizure test, oral treatment of rats; format: in vivo; conditions: rats oral 94 μmol/kg
[3] = Rotating rod test (Rotorod Toxicity), mice; format: in vivo; conditions: for Rotorod Toxicity: challenge 0.5 and 4 h
From the text: (§3) This qualitative test was used to evaluate ‘neurotoxicity’, central nervous system stimulation or depression. Depression of CNS activity is a common feature of all antiepileptic drugs. Mice or rats are placed on a 1 inch diameter knurled plastic rod rotating at 6 revolutions per min. Normal mice and rats can remain on a rod rotating at this speed indefinitely. […] It may be attributed to CNS depression due to sedative and/or hypnotic activities, or a state of eminent death, due to medullary paralysis at high doses, a common unwanted side effect caused by high doses of all anticonvulsant drugs.

[4] = Rotating rod test (Rotorod Toxicity), rats; format: in vivo; conditions: rats oral 94 μmol/kg; challenge 0.25, 0.5, 1, 2, and 4 h
From the text: as §3

zebrafish larvae = test: Toxicological evaluation (Maximum Tolerated Concentration) in zebrafish larvae; format: in vivo; conditions: 100 µM; 24 h exposure of larvae
Method: as §1, §2
The Maximum Tolerated Concentration (MTC) was defined as the maximum concentration at which no death or signs of toxicity (in the circulatory system) were observed.
The MTC in the fish water was initially determined by incubating zebrafish larvae resulting from 4 days post fertilization (dpf) with compounds assayed in E3. During 24 hours, 5 larvae of zebrafish per well were placed in a tissue culture in 24 well plates using tested compounds at 10 μM, 30 μM and 100 μM concentration in the medium. Following the 24 h period of incubation, the characteristics of the zebrafish larvae were examined. The MTC were determined in treated groups at 5 dpf after 24 h exposure to the tested drugs.

Compound: CCCC(CCC)C(=O)[O-].CCCC(CCC)C(=O)[O-].CCCC(CCC)C(=O)[O-].CCCC(CCC)C(=O)[O-].[Cu+2].[Cu+2] [Compound 3, Tetrakis-μ-2-propylpentanoato dicopper(II)]
- percentage of relative leukocyte's migration (leukocyte migration; zebrafish larvae, tail section + lipopolysaccharide, tested at MTC, 7 h): 60%

Compound: CCCC(CCC)C(=O)[O-].CCCC(CCC)C(=O)[O-].[Cu+2].c1cnc2c(c1)ccc1cccnc12 [Compound 4, bis-(2-propylpentanoato)(1,10-phenanthroline)copper(II)]
- anticonvulsant activity, MES challenge [1]: inactive
- TPE (Time to Peak Effect) (Minimal Clonic Seizure; 18 μmol/kg): 2 h
- activity against Minimal Clonic seizure (Minimal Clonic Seizure; 18 mol/kg, challenge times 1, 2, and 4 h): activity was found
- ED50, Minimal Clonic seizure (Minimal Clonic Seizure; mice): 8 µmol/kg
- toxicity observed in MCS test (Minimal Clonic Seizure; mice 188 μmol/kg, 0.25, 0.5, 1, and 2 h): inability to grasp the rotating rod
- deaths in MCS test (Minimal Clonic Seizure; mice 188 μmol/kg, 2 h challenge time): three deaths
- deaths in MCS test (Minimal Clonic Seizure; mice 188 μmol/kg, before the 4 h challenge): all mice died
- activity against Minimal Clonic seizure (Minimal Clonic Seizure; mice 188 μmol/kg, challenge 0.25, 0.5, 1, and 2 h): active
- toxicity in MCS test (Minimal Clonic Seizure; mice 2.25, 4.5, 9, 18, and 36 μmol/kg, 2 h): absence of toxicity
- protection against the Minimal Clonic seizure (Minimal Clonic Seizure; mice 2.25, 4.5, 9, 18, and 36 μmol/kg, challenge at 2 h): dose-related increase in protection
- deaths in MCS test (Minimal Clonic Seizure; mice ip 94 μmol/kg, after the 2 h challenge): two deaths
- protection against Minimal Clonic Seizure (Minimal Clonic Seizure; mice ip 94 μmol/kg, challenge 0.25, 0.5, 1, and 2 h): protected
- toxicity observed in MCS test (Minimal Clonic Seizure; mice ip 94 μmol/kg, most mice): Minimal motor impairment
- deaths in MCS test (Minimal Clonic Seizure; mice ip 94 μmol/kg, prior to challenge at 4 h): All treated mice died
- anticonvulsant activity against MCS, complex versus individual constituents (Minimal Clonic Seizure): μmolar level
- deaths in scMET test ([2]; 188 μmol/kg at 4 h challenge and 570 μmol/kg at 0.5 challenge time): deaths occurring without seizure
- anticonvulsant activity, scMET seizure model ([2]; mice 5.7, 19, 57, 188, and 570 μmol/kg, challenge 0.5 and 4 h): inactive
- adverse effects in MET test (MET-induced seizures): continuous seizure activity, death following continuous seizure activity, or tonic seizure extension
- protection against MET-induced seizures (MET-induced seizures; challenge 0.25, 0.5, 1, 2, and 4 h): not protective
- deaths in Rotorod test ([3]; mice 188 μmol/kg, 4 h challenge time): three deaths
- Rotorod Toxicity ([3]; mice 188 μmol/kg, impaired ability to grasp the rotating rod): observed
- Rotorod Toxicity ([3]; mice 570 μmol/kg): impaired ability to grasp the rotating rod, sedation, and deaths without seizure
- Rotorod Toxicity ([3]; mice ip 5.7, 19, and 57 μmol/kg): not observed
- Rotorod Toxicity [4]: failed to evidence Rotorod Toxicity

Compound: CCCC(CCC)C(=O)[O-].CCCC(CCC)C(=O)[O-].[Mg+2] [Compound 7]
- toxicity in zebrafish (zebrafish larvae): did not show any toxicity
- anti-inflammatory result, ranking in words (leukocyte migration; zebrafish): best result

Compound: [Cl][Cu][Cl] [copper chloride, reference compound]
- anticonvulsant activity against MCS, complex versus individual constituents (Minimal Clonic Seizure): no anticonvulsant of activity

Compound: COc1ccc2c(c1)c(CC(=O)O)c(C)n2C(=O)c1ccc(Cl)cc1 [indomethacin, reference compound]
- percentage of relative leukocyte's migration (leukocyte migration; positive control, indomethacin at 30 μM): 20%

Compound: c1cnc2c(c1)ccc1cccnc12 [phenanthroline, 1,10-phenanthroline, reference compound]
- anticonvulsant activity against MCS, complex versus individual constituents (Minimal Clonic Seizure): no anticonvulsant of activity

Compound: CCCC(CCC)C(=O)O [sodium valproate, reference compound]
- ED50 (Minimal Clonic Seizure; Mus musculus, same paradigm, sodium valproate): 2800 µmol/kg

Compound: CCCC(CCC)C(=O)O [valproic acid, 2-propylpentanoic acid]
- anticonvulsant activity against MCS, complex versus individual constituents (Minimal Clonic Seizure): much less potency

Compound: copper acetate [reference compound]
- anticonvulsant activity against MCS, complex versus individual constituents (Minimal Clonic Seizure): no anticonvulsant of activity
